Results from publication PMC5356834 (Oncotarget, 2016).

Assays:
[1] = tested on: α-tubulin acetylation in A2780 and MDA-MB-231 cells; experiment: Immunoblotting of acetylated α-tubulin after combination treatment; format: cell-based; details: 48 hours
Method: A2780 and MDA-MB-231 cells were treated for 48 hours with the indicated concentrations of each drug and whole cell protein lysates were subjected to immunoblotting using antibodies for acetylated-α-tubulin and β-actin.
(§1) Lysates were sonicated 2 to 3 times for 30 sec in medium (Diagenode, Bioruptor 300).
(§2) For western blot analysis, equal amounts of protein were loaded and size separated on Bolt™ 4 to 12% Bis-Tris Plus Gels. Proteins were subsequently transferred onto polyvinylidene difluoride (PVDF) membrane using an iBlot® 2 Dry Blotting System (Invitrogen). Immunoblotting was carried out according to standard protocols with antibodies against histone H3 acetyl-lysine 56 (abcam), histone-H4, pantropic (Millipore), acetyl-α-tubulin (Sigma); and β-Actin (Sigma). Antigen-antibody complexes were detected using secondary antibodies conjugated with horseradish […] (HRP) and visualized using enhanced chemiluminescence (GE Healthcare; Piscataway, NJ).
For WES analysis, lysates were separated by an automated capillary-based electrophoresis system (WES, ProteinSimple, San Jose, CA). All procedures were performed according to the manufacturer's recommendations using the supplied reagents. […] The resulting data were analyzed using Compass software (ProteinSimple).

[2] = tested on: TOV-21G cells; experiment: Live cell time-lapse imaging of cell division; format: cell-based; details: ACY-241 2 μM plus paclitaxel 5 nM, up to 48 hours
Method: Time-lapse imaging was obtained on a Zeiss AX10 live-cell microscope coupled with a CO2 and temperature-maintenance system, and a time-lapse recording system supporting multi-location time series acquisition (SlideBook6 x64, Intelligent Imaging Innovations, Inc., Ringsby, CT). After staining with 10 nM Hoechst33342, TOV-21G cells were incubated in 10% CO2 at 37°C and time-lapse images were acquired at 2 min intervals up to 48 hours with a CoolSNAP HQ2 CCD camera (Photometrics, Tucson, AZ). […]
monitored by live cell time-lapse microscopy. (A) The number of observed mitotic cells, unresolved mitoses, and frequency of bipolar and multipolar division from resolved mitosis were assessed. (B) Fluorescent and matched phase-contrast time-lapse images of representative mitoses in TOV-21G cells treated with the drug combination. Numbers show elapsed time after drug treatment (hour:minute:second), the color of circles differentiates individual cells being monitored, and dashed circles indicate observation of cell death. Panels labeled with lower case letters (a-e) identify timepoints with matched phase contrast images below (a’-e’).
(§3) (1 picture or pasted object on this page, not shown here)

[3] = tested on: MDA-MB-231 breast cancer cells; experiment: IncuCyte live-cell proliferation assay; format: cell-based; details: for proliferation (absolute cell number): MDA-MB-231, single agent
[4] = tested on: α-tubulin acetylation in A2780 ovarian cancer cells; experiment: Immunoblotting of acetylated α-tubulin in A2780 cells; format: cell-based
Method: as §1, §2

[5] = tested on: MDA-MB-231 breast cancer cells; experiment: IncuCyte Caspase 3/7 apoptosis assay; format: cell-based; details: for apoptosis (Caspase 3/7): MDA-MB-231, single agent
[6] = tested on: TOV-21G cells; experiment: Scoring of interphase cells with abnormal nuclei; format: cell-based; details: 48 hours
From the text: (§4) (B) The frequency of mitotic cells with multipolar spindles was scored in at least 50 cells from each treatment condition. Shown is the mean ± SD of three independent experiments. […] Microtubules and DNA were visualized by staining with anti-α-tubulin antibody (green) and DAPI (blue), respectively. The frequency of interphase cells with visually abnormal nuclei, including satellite nuclei and multinucleation, was scored in at least 100 cells per treatment condition. Shown is the mean ± SD of three independent experiments.
(§5) Cells grown on glass coverslips were fixed in 4% paraformaldehyde for 15 min, followed by permeabilization with 0.5% Triton X-100 in PBS for 5 min. The cells were then incubated with α-tubulin (DM1A) mouse monoclonal antibody (Cell Signaling Technology, Danvers, MA), γ-tubulin (GTU-88) mouse monoclonal antibody (Sigma-Aldrich, St. Louis, MO) or NuMA (GT3611) mouse monoclonal antibody (Thermo Scientific, Rockford, IL) followed by Alexa Fluor 488 or 546 conjugated secondary antibodies (Invitrogen, Carlsbad, CA). Images were obtained with a Zeiss AX10 microscope (Carl Zeiss Micro-Imaging, Inc., Jena, Germany) equipped with a 20 X, 40X, or 63 X objective and standard filter set.

[7] = Tolerability and body weight in xenograft-bearing mice; details: for body weight change: MiaPaCa-2 model, combination treatment with paclitaxel; for tolerability in mice: dosed as a single agent and in combination with paclitaxel
[8] = tested on: MiaPaCa-2 xenografts; experiment: MiaPaCa-2 pancreatic cancer xenograft; format: in vivo, mice; details: MiaPaCa-2 xenograft, HDAC6 inhibitor 50 mg/kg IP plus paclitaxel 10 mg/kg
[9] = tested on: histone H3 acetylation in A2780 ovarian cancer cells; experiment: Immunoblotting of acetylated histone H3 (H3K56) in A2780 cells; format: cell-based; details: 24 hour treatment
Method: as §1, §2

[10] = tested on: A2780, TOV-21G and MiaPaCa-2 cells; experiment: EdU / FxCycle flow cytometry cell cycle assessment in multiple cell lines (Figure 4B, 4C); format: cell-based
[11] = tested on: TOV-21G cells; experiment: Multipolar mitotic spindle scoring by NuMA and α-tubulin co-staining; format: cell-based; details: 24 hours
From the text: as §4, §5
(A) Immunostaining for α-tubulin (green), NuMA
(red), and DNA (blue). (B) The frequency of mitotic cells with multipolar spindles was scored in at least 100 cells from each treatment
as §3

[12] = tested on: A2780, TOV-21G and MDA-MB-231 cells; experiment: MTS cell viability assay; format: cell-based; details: 72 h, range over A2780, TOV-21G and MDA-MB-231 cells, 3 days, read-out: single agent viability IC50
Method: CellTiter 96® AQueous One Solution; Promega; Madison, WI, USA) dye absorbance. Cells (A2780, TOV-21G, MDA-MB-231) from 72 hour cultures were pulsed with 5 μL of CellTiter 96® AQueous One Solution in each well. The 384-well plates were incubated at 37°C for 5 hours, and absorbance was read in triplicate at a wavelength of 490 nm (with background correction using readings at 650 nm) on a spectrophotometer (Molecular Devices Corp.; Sunnyvale, CA, USA). […] The IC50 for each agent in each cell line is indicated in the legend of each graph. Real-time kinetic trace graphs of (C) cell proliferation and (D) induction of apoptosis were generated in the MDA- MB-231 breast cancer cell line. […] The mean and SEM of three replicate samples are shown. […]

[13] = tested on: TOV-21G ovarian cancer cells; experiment: Multipolar mitotic spindle scoring by α-tubulin staining; format: cell-based; details: 24 hours; for frequency of multipolar spindle formation, combination with paclitaxel: HDAC6 inhibitor 2 μM plus paclitaxel 2 nM; for frequency of multipolar mitotic spindle formation, single agent: paclitaxel 2 nM, ACY-241 2 μM, ACY-1215 2 μM, control 3.1%
Method: as §5
for α-tubulin (red) and DNA (blue) identified mitotic cells with multipolar spindles. (B) The frequency of multipolar spindle formation in
M phase cells was scored in at least 50 cells per treatment condition.
as §3

[14] = tested on: phospho-histone H3 (pH3) positive cells; experiment: Phospho-histone H3 / DNA content flow cytometry for M phase cells; format: cell-based; details: for pH3 positive cells (M phase): low dose 6 nM
Method: arrest. (A) Dual parameter phospho-histone H3 (y axis, M phase cells) and FxCycle Far Red (x axis, DNA content) staining indicate the […]
High dose treatment of paclitaxel (100 nM) served as a positive control for M phase arrest. (B) Phase contrast micrographs were taken at the indicated time points after treatment of the samples in panel (A).
as §3

[15] = tested on: TOV-21G xenografts; experiment: TOV-21G ovarian cancer xenograft; format: in vivo, mice; details: TOV-21G xenograft, HDAC6 inhibitor 50 mg/kg IP plus paclitaxel 10 mg/kg
[16] = tested on: A2780 xenografts; experiment: A2780 ovarian cancer xenograft; format: in vivo, mice; details: HDAC6 inhibitor 50 mg/kg IP plus paclitaxel 10 mg/kg
[17] = MDA-MB-231, relative to either single agent

## O=C(CCCCCCNC(=O)c1cnc(N(c2ccccc2)c2ccccc2Cl)nc1)NO [ACY-241]
[1]
  α-tubulin hyperacetylation, combination with paclitaxel: synergistic increase in α-tubulin hyperacetylation
[2]
  frequency of multipolar cell division, combination with paclitaxel: increased the frequency of multipolar cell division compared to each single agent
[3]; [17]
  proliferation, combination with paclitaxel: significantly reduced proliferation
[3]; 10 μM
  proliferation (absolute cell number): completely suppressed proliferation
[3]; doses up to 3 μM, 96 hours
  proliferation (absolute cell number): modestly reduced proliferation
[4]; 24 hour treatment, 300 nM
  hyperacetylation of α-tubulin: increased hyperacetylation of α-tubulin
[4]; range of concentrations, 24 hours
  α-tubulin hyperacetylation, dose dependence: dose-dependent increase in α-tubulin hyperacetylation
[5]; [17]
  apoptosis, combination with paclitaxel: enhanced apoptosis
[5]; 10 μM
  apoptosis (Caspase 3/7): significant induction of apoptosis
[5]; doses up to 3 μM, 96 hours
  apoptosis (Caspase 3/7): without inducing apoptosis
[6]
  frequency of cells with visually abnormal nuclei, combination with paclitaxel: significantly increased the frequency of cells with visually abnormal nuclei
[7]
  body weight change: did not result in body weight loss
  tolerability in mice: well tolerated
[8]
  suppression of tumor growth, combination with paclitaxel: similarly significant efficacy
[9]
  doses at which hyperacetylation of histone H3 was observed: above 1 μM
[10]; A2780 and TOV-21G (3 days), MiaPaCa-2 (5 days)
  percentage of cells in S phase, combination with paclitaxel: significantly reduced the percentage of cells in S phase
[10]; relative to control or single agent treatment
  induction of cell death (SubG1), combination with paclitaxel: significantly increased induction of cell death
[11]; NuMA/α-tubulin co-staining, p = 0.0047 vs paclitaxel
  frequency of multipolar spindle formation, combination with paclitaxel: 51.5%
[11]; epothilone 0.5 nM plus ACY-241
  frequency of multipolar spindle formation, combination with epothilone: 51.3%
[12]
  IC50: 4600 to 6100 nM
[13]
  frequency of multipolar spindle formation, combination with paclitaxel: 38.6%
  frequency of multipolar mitotic spindle formation, single agent: 10.7%
[14]; 2 μM, single agent or in combination with paclitaxel
  M phase arrest: did not significantly increase M phase arrest

## C/C(=C\c1csc(C)n1)[C@@H]1C[C@@H]2O[C@]2(C)CCC[C@H](C)[C@H](O)[C@@H](C)C(=O)C(C)(C)[C@@H](O)CC(=O)O1 [epothilone, epothilone B, reference compound]
[11]; 0.5 nM, control 0.9%
  frequency of multipolar mitotic spindle formation, single agent: 29.9%

## CC(=O)O[C@H]1C(=O)[C@@]2(C)[C@H]([C@H](OC(=O)c3ccccc3)[C@]3(O)C[C@H](OC(=O)[C@H](O)[C@@H](NC(=O)c4ccccc4)c4ccccc4)C(C)=C1C3(C)C)[C@]1(OC(C)=O)CO[C@@H]1C[C@@H]2O [paclitaxel, reference compound]
[3]; up to 2 nM
  proliferation (absolute cell number): modestly reduced cell proliferation
[5]; up to 2 nM
  apoptosis (Caspase 3/7): did induce apoptosis after longer duration of exposure
[11]; NuMA/α-tubulin co-staining (Figure 6B)
  frequency of multipolar spindle formation, single agent: 30.4%
[12]
  IC50: 2.3 to 3.2 nM
[13]
  frequency of multipolar mitotic spindle formation, single agent: 15.2%
[14]; high concentration 100 nM, 8 to 24 hours
  cell cycle arrest at M phase: induced cell cycle arrest at mitosis (M) phase
[14]; 8 hours, DMSO […]
  pH3 positive cells (M phase): 14%
[14]; 24 hours
  pH3 positive cells (M phase): 4.1%

## O=C(CCCCCCNC(=O)c1cnc(N(c2ccccc2)c2ccccc2)nc1)NO [ricolinostat]
[15]
  suppression of tumor growth, combination with paclitaxel: significantly greater suppression of tumor growth relative to either single agent
[16]
  suppression of tumor growth, combination with paclitaxel: significantly greater suppression of tumor growth relative to either single agent
[7]
  body weight change: did not result in body weight loss
  tolerability in mice: well tolerated
[8]
  suppression of tumor growth, combination with paclitaxel: significantly greater suppression of tumor growth relative to either single agent
[13]
  frequency of multipolar spindle formation, combination with paclitaxel: 41.3%
  frequency of multipolar mitotic spindle formation, single agent: 12.6%
